In patent US9777301B2, “Method for producing optically active amine compounds by deracemization” (INDUSTRY-ACADEMIC COOPERATION FOUNDATION, YONSEI UNIVERSITY, priority 2012, dated 2017):
Entries after “also recorded” stand apart in the source; their conditions may differ. Marks after values point to notes of the source that are not given here.

What was measured:
[1] = system: D-amino acid transaminase; assay: Substrate specificity of purified D-amino acid transaminase toward keto acids (amino acceptors); type: biochemical, Bacillus sphaericus; details: for Activity of D-amino acid transaminase toward amino acceptor (in words): Tables 7 and 8; for Pyruvate (mM) generated: D-alanine 20 mM as amino donor
Method: Each of amino acceptors shown in Tables 7 and 8 and D-alanine or D-homoalanine as substrates were allowed to react with the D-amino acid transaminase purified in Example 7. Specifically, each amino acceptor (20 mM), D-alanine or D-homoalanine (20 mM), and potassium phosphate (50 mM, pH 7) were allowed to react with 0.1 U/ml of the D-amino acid transaminase at 37° C. for 10 min, and the amount of a keto acid (pyruvate or 2-oxobutyrate) generated was measured.

[2] = system: (S)-selective ω-transaminase derived from P. denitrificans; assay: Substrate specificity of (S)-selective ω-transaminase toward keto acids; type: biochemical, Paracoccus denitrificans; details: for Acetophenone (mM) P. denitrificans: keto acid 20 mM, (S)-α-methylbenzylamine 20 mM, 50 mM potassium phosphate pH 7, 37° C., 10 min
Method: (§1) The substrate specificity of the (S)-selective ω-transaminase was confirmed in each keto acid (20 mM), (S)-α-methylbenzylamine (20 mM) and potassium phosphate (50 mM, pH 7). After the reactions were carried out at 37° C. for 10 min, the amounts of acetophenone produced were measured.

[3] = system: (S)-selective ω-transaminase derived from O. anthropi; assay: as above; type: biochemical, Ochrobactrum anthropi; details: for Activity of (S)-selective ω-transaminase toward keto acid (in words): Table 9, speaks of the (S)-selective ω-transaminase without naming O. anthropi or P. denitrificans; for Acetophenone (mM) O. anthropi: keto acid 20 mM, (S)-α-methylbenzylamine 20 mM, 50 mM potassium phosphate pH 7, 37° C., 10 min
Method: as §1

[4] = system: (S)-selective ω-transaminase derived from O. anthropi; assay: Substrate specificity of ω-transaminase toward 11 racemic amines (initial rate, relative reactivity); type: biochemical, Ochrobactrum anthropi; details: for Relative reactivity (%): PLP 0.1 mM, 10 min, activity toward α-methylbenzylamine defined as 100%; for Activity toward (S)-1-aminoindane relative to (S)-α-methylbenzylamine: (S)-enantiomer compared with (S)-α-methylbenzylamine, value in parentheses in Table 13
Method: An investigation was made as to the substrate specificities of the (S)-selective ω-transaminase derived from O. anthropi, which was purified in Example 7, toward 11 amines: α-methylbenzylamine 1a, 4-fluoro-α-methylbenzylamine 1b, α-ethylbenzylamine 1c, 1-methyl-3-phenylpropylamine 1d, 1-aminoindane 1e, sec-butylamine 1f, cyclopropylethylamine 1g, 2-aminopentane 1h, 2-aminooctane 1i, 1-methoxy-2-propylamine 1j, and alaninol 1k. 0.125 U/ml of the (S)-selective transaminase derived from O. anthropi was added to each racemic amine (10 mM), pyruvate (10 mM), PLP (0.1 mM), and phosphate buffer (50 mM, pH 7.5) at 37° C. After the mixture was allowed to react for 10 min, the amount of L-alanine produced was measured via GITC derivatization. All activities were measured in the initial reaction rate range of ≦5% conversion. The initial reaction rate for α-methylbenzylamine was measured to be 0.033 mM/min. When the activity of the ω-transaminase toward α-methylbenzylamine was defined as 100%, the activities of the ω-transaminase toward 4-fluoro-α-methylbenzylamine 1b, α-ethylbenzylamine 1c, 1-methyl-3-phenylpropylamine 1d, and 1-aminoindane 1e as arylalkylamines were 91%, 18%, 70%, and 64%, respectively. The activity of the ω-transaminase toward (S)-1-aminoindane was 153% of that toward (S)-α-methylbenzylamine. The activities of the ω-transaminase toward sec-butylamine 1f, cyclopropylethylamine 1g, 2-aminopentane 1h, 2-aminooctane 1i, 1-methoxy-2-propylamine 1j, and alaninol 1k as alkylamines were 54%, 63%, 29%, 146%, 60%, and 63%, respectively.

[5] = system: D-amino acid transaminase; assay: Effect of L-amino acid concentration on activity of D-amino acid transaminase; type: biochemical, Bacillus sphaericus; details: 0-20 mM L-homoalanine in 20 mM D-homoalanine, 20 mM pyruvate, pH 7, 37° C., 10 min; 2-oxobutyrate measured
Method: For continuous deracemization of a racemic amino acid with the D-amino acid transaminase purified in Example 7, L-amino acid as a final product should not affect the activity of the D-amino acid transaminase. Deterioration in the activity of the enzyme by the final product makes it difficult to induce continuous reactions. The activities of the D-amino acid transaminase were confirmed at different concentrations (0, 1, 3, 5, 7, 10, 15, and 20 mM) of L-homoalanine in 20 mM D-homoalanine, 20 mM pyruvate, and 50 mM potassium phosphate (pH 7). After the reactions were carried out at 37° C. for 10 min, the amounts of 2-oxobutyrate produced were measured.

[6] = system: (S)-selective ω-transaminase derived from O. anthropi; type: biochemical, Ochrobactrum anthropi; details: for Activity of (S)-selective ω-transaminase toward amine (in words): Table 10, speaks of the (S)-selective ω-transaminase without naming O. anthropi or P. denitrificans; for L-alanine (mM) O. anthropi: amine 20 mM (40 mM racemic sec-butylamine), pyruvate as acceptor, 50 mM potassium phosphate pH 7, 37° C., 10 min
Method: (§2) The substrate specificity of the (S)-selective ω-transaminase was confirmed in each amine (20 mM), (S)-amine (20 mM, in 40 mM racemic sec-butylamine) and potassium phosphate (50 mM, pH 7). After the reactions were carried out at 37° C. for 10 min, the amounts of L-alanine produced were measured.

[7] = system: (S)-selective ω-transaminase derived from P. denitrificans; assay: Substrate specificity of (S)-selective ω-transaminase toward amines (L-alanine from pyruvate); type: biochemical, Paracoccus denitrificans; details: amine 20 mM (40 mM racemic sec-butylamine), pyruvate as acceptor, 50 mM potassium phosphate pH 7, 37° C., 10 min
Method: as §2

[8] = amino acceptor 20 mM, 0.1 U/ml enzyme, 50 mM potassium phosphate pH 7, 37° C., 10 min
[9] = racemic amine 10 mM, pyruvate 10 mM, 0.125 U/ml enzyme, pH 7.5, 37° C.

| SMILES | Activity of D-amino acid transaminase toward amino acceptor (in words) [1] | Pyruvate (mM) generated [1, 8] [mM] | Acetophenone (mM) P. denitrificans [2] [mM] | Acetophenone (mM) O. anthropi [3] [mM] | Relative reactivity (%) [4, 9] | also measured |
| --- | --- | --- | --- | --- | --- | --- |
| O=C(O)CCC(=O)C(=O)O [α-Ketoglutarate] | have activity; also recorded: had activity | 0.971 | -0.003 | -0.001 |  | Activity of (S)-selective ω-transaminase toward keto acid (in words) [3]: no activity |
| CC(N)CCc1ccccc1 (racemic) [Substrate 1d, 1-methyl-3-phenylpropylamine] |  |  |  |  | 70% |  |
| CC(C)CC(=O)C(=O)O [4-Methyl-2-oxopentanoate] | have activity | 0.073 | 0.175 | 0.005 |  | Activity of (S)-selective ω-transaminase toward keto acid (in words) ([2]; Table 9, marked (P. denitrificans)): have activity |
| O=C(O)C(=O)CO [β-Hydroxypyruvate] | have activity | 0.079 | 0.066 | 0.183 |  | Activity of (S)-selective ω-transaminase toward keto acid (in words) [3]: have activity |
| CCC(=O)C(=O)O [2-Oxobutyrate] | have activity | 1.375 | 0.821 | 0.173 |  | Activity of (S)-selective ω-transaminase toward keto acid (in words) [3]: have activity |
| CC(C)(C)C(=O)C(=O)O [Trimethylpyruvate] |  | 0.000 | -0.004 | -0.002 |  |  |
| NC1CCc2ccccc21 (racemic) [Substrate 1e, 1-aminoindane] |  |  |  |  | 64% | Activity toward (S)-1-aminoindane relative to (S)-α-methylbenzylamine [4]: 153% |
| O=C(O)C(=O)CS [Mercaptopyruvate] | have activity | 0.022 | 0.008 | 0.012 |  |  |
| CC[C@H](N)C(=O)O [L-homoalanine] |  |  |  |  |  | Effect of L-amino acid on activity of D-amino acid transaminase (FIG. 1) [5]: did not lose its activity |
| CC(C)C(=O)C(=O)O [3-Methyl-2-oxobutyrate] | have activity | 0.014 | -0.002 | -0.001 |  |  |
| O=CC(=O)Oc1ccccc1 [Phenyl glyoxylate] |  | 0.000 | -0.008 | -0.005 |  |  |
| CCCCCCC(C)N (racemic) [Substrate 1i, 2-aminooctane] |  |  |  |  | 146% |  |
| CC(C)N [Isopropylamine] |  |  |  |  |  | Activity of (S)-selective ω-transaminase toward amine (in words) [6]: have activity; L-alanine (mM) O. anthropi [6]: 0.309 ± 0.050 mM; L-alanine (mM) P. denitrificans [7]: 0.033 ± 0.002 mM |
| CCCCC(=O)C(=O)O [2-Ketohexanoate] | have activity | 0.531 | 0.713 | 0.006 |  | Activity of (S)-selective ω-transaminase toward keto acid (in words) [3]: have activity |
| CC(N)CO (stereo not drawn) [Substrate 1k, alaninol] |  |  |  |  | 63% |  |
| CC(N)c1ccc(F)cc1 (racemic) [Substrate 1b, 4-fluoro-α-methylbenzylamine] |  |  |  |  | 91% |  |
| O=C(O)C(=O)CF [Fluoropyruvate] | have activity | 0.053 | 0.339 | 0.554 |  | Activity of (S)-selective ω-transaminase toward keto acid (in words) [3]: have activity |
| O=C(O)C(=O)C12CC3CC(CC(O)(C3)C1)C2 [2-(3-Hydroxy-1-adamantyl)-oxoethanoate] |  | 0.000 | -0.004 | -0.002 |  |  |
| CC(N)c1ccccc1 (racemic) [Substrate 1a, α-methylbenzylamine] |  |  |  |  | 100^c % | Initial reaction rate ([4]; racemic amine 10 mM, pyruvate 10 mM, 0.125 U/ml enzyme, pH 7.5, 37° C., ≦5% conversion): 0.033 mM/min |
| C[C@H](N)c1ccccc1 [(S)-α-methylbenzylamine] |  |  |  |  |  | Activity of (S)-selective ω-transaminase toward amine (in words) [6]: have activity; L-alanine (mM) O. anthropi [6]: 0.715 ± 0.082 mM; L-alanine (mM) P. denitrificans [7]: 0.451 ± 0.077 mM |
| CCC(N)c1ccccc1 (racemic) [Substrate 1c, α-ethylbenzylamine] |  |  |  |  | 18% |  |
| CCCC(C)N (racemic) [Substrate 1h, 2-aminopentane] |  |  |  |  | 29% |  |
| CCC(C)C(=O)C(=O)O (stereo not drawn) [3-Methyl-2-oxopentanoate] |  |  | -0.004 | 0.001 |  |  |
| O=CC(=O)O [Glyoxylate] |  |  | 1.076 | 1.733 |  | Activity of (S)-selective ω-transaminase toward keto acid (in words) [3]: have activity |
| CCC(C)N (racemic) [Substrate 1f, sec-butylamine] |  |  |  |  | 54% | Activity of (S)-selective ω-transaminase toward amine (in words) [6]: have activity; L-alanine (mM) O. anthropi [6]: 0.164 ± 0.019 mM; L-alanine (mM) P. denitrificans [7]: 0.000 ± 0.000 mM |
| N[C@H]1CCc2ccccc21 [(S)-1-aminoindane] |  |  |  |  |  | Activity toward (S)-1-aminoindane relative to (S)-α-methylbenzylamine [4]: 153% |
| COCC(C)N (racemic) [Substrate 1j, 1-methoxy-2-propylamine] |  |  |  |  | 60% |  |
| CCCC(=O)C(=O)O [2-Oxopentanoate] | have activity | 0.882 | 1.032 | 0.078 |  | 2-Oxobutyrate (mM) generated ([1]; amino acceptor 20 mM, D-homoalanine 20 mM as amino donor, 0.1 U/ml enzyme, 50 mM potassium phosphate pH 7, 37° C., 10 min): 0.651 mM; Activity of (S)-selective ω-transaminase toward keto acid (in words) [3]: have activity |
